Values joined by “and” are separate entries in the source; they are usually repeats but may differ in a detail not shown here. Equal values may be shown once.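 How tested: cells in 96-well plates exposed to compound for 48 hours at five concentrations. Abbreviation: GI50, concentration required for 50% inhibition of growth. Definition used: TGI = concentration required for complete inhibition of growth.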
How the values were obtained:
Assay in all cases: NCI tumour cell line growth inhibition, 48 h
SN12C renal = tested on: SN12C renal
OVCAR-4 ovarian = tested on: OVCAR-4 ovarian
SW-620 colon = tested on: SW-620 colon
HOP-62 NSCLC = tested on: HOP-62 NSCLC
U251 CNS = tested on: U251 CNS
786-0 renal = tested on: 786-0 renal
A549 NSCLC = tested on: A549 NSCLC
SNB-75 CNS = tested on: SNB-75 CNS
IGROV1 ovarian = tested on: IGROV1 ovarian
KM20L2 colon = tested on: KM20L2 colon
CAKI-1 renal = tested on: CAKI-1 renal
SNB-78 CNS = tested on: SNB-78 CNS
NCI-H23 lung = tested on: NCI-H23 lung
RXF-631 renal = tested on: RXF-631 renal
SR leukemia = tested on: SR leukemia
HT29 colon = tested on: HT29 colon
EKVX NSCLC = tested on: EKVX NSCLC
OVCAR-5 ovarian = tested on: OVCAR-5 ovarian
SK-MEL-28 melanoma = tested on: SK-MEL-28 melanoma
UACC-62 melanoma = tested on: UACC-62 melanoma
SF-539 CNS = tested on: SF-539 CNS
HCT-116 colon = tested on: HCT-116 colon
DMS 273 small cell lung = tested on: DMS 273 small cell lung
HL-60(TB) leukemia = tested on: HL-60(TB) leukemia
NCI-H522 lung = tested on: NCI-H522 lung
SK-MEL-5 melanoma = tested on: SK-MEL-5 melanoma
SF-268 CNS = tested on: SF-268 CNS
RXF 393 renal = tested on: RXF 393 renal
MALME-3M melanoma = tested on: MALME-3M melanoma
MOLT-4 leukemia = tested on: MOLT-4 leukemia
KM12 colon = tested on: KM12 colon
COLO 205 colon = tested on: COLO 205 colon
TK-10 renal = tested on: TK-10 renal
LXFL 529 NSCLC = tested on: LXFL 529 NSCLC
HOP-92 NSCLC = tested on: HOP-92 NSCLC
UACC-257 melanoma = tested on: UACC-257 melanoma
LOX IMVI melanoma = tested on: LOX IMVI melanoma
XF 498 CNS = tested on: XF 498 CNS
UO-31 renal = tested on: UO-31 renal
HCC-2998 colon = tested on: HCC-2998 colon
SK-OV-3 ovarian = tested on: SK-OV-3 ovarian
OVCAR-3 ovarian = tested on: OVCAR-3 ovarian
M19-MEL melanoma = tested on: M19-MEL melanoma
SF-295 CNS = tested on: SF-295 CNS
DLD-1 colon = tested on: DLD-1 colon
CCRF-CEM leukemia = tested on: CCRF-CEM leukemia
NCI-H226 lung = tested on: NCI-H226 lung
ACHN renal = tested on: ACHN renal
HOP-18 NSCLC = tested on: HOP-18 NSCLC
A498 renal = tested on: A498 renal
SNB-19 CNS = tested on: SNB-19 CNS
M14 melanoma = tested on: M14 melanoma
OVCAR-8 ovarian = tested on: OVCAR-8 ovarian
SK-MEL-2 melanoma = tested on: SK-MEL-2 melanoma
K-562 leukemia = tested on: K-562 leukemia
DMS 114 small cell lung = tested on: DMS 114 small cell lung
MCF7 breast = tested on: MCF7 breast
P388 leukemia = tested on: P388 leukemia
NCI-H460 lung = tested on: NCI-H460 lung
SN12K1 renal = tested on: SN12K1 renal
HCT-15 colon = tested on: HCT-15 colon
RPMI-8226 leukemia = tested on: RPMI-8226 leukemia
NCI/ADR-RES ovarian = tested on: NCI/ADR-RES ovarian
P388/ADR leukemia = tested on: P388/ADR leukemia
HS 578T breast = tested on: HS 578T breast
MDA-N = tested on: MDA-N
T-47D breast = tested on: T-47D breast
DU-145 prostate = tested on: DU-145 prostate
PC-3 prostate = tested on: PC-3 prostate
MDA-MB-231 breast = tested on: MDA-MB-231 breast
BT-549 breast = tested on: BT-549 breast

[C-]#[N+]C(C)(C)C[C@H]1CC(C)C2CCC(C)C3([N+]#[C-])CCC(=C)C1[C@H]23 (stereo partly drawn)
TGI (SN12C renal): 8.85 µM
TGI (OVCAR-4 ovarian): 13.1 µM
TGI (SW-620 colon): 12.7 µM
TGI (HOP-62 NSCLC): 19.3 µM
TGI (U251 CNS): 11.8 µM
TGI (786-0 renal): 15.3 µM
TGI (A549 NSCLC): 21.7 µM
TGI (SNB-75 CNS): 49.7 µM
TGI (IGROV1 ovarian): 47.4 µM
TGI (KM20L2 colon): 11.6 µM
TGI (CAKI-1 renal): 20.1 µM
TGI (SNB-78 CNS): 12 µM
TGI (NCI-H23 lung): 19.6 µM
TGI (RXF-631 renal): 6.58 µM
TGI (SR leukemia): 8.74 µM
TGI (HT29 colon): 11.7 µM
TGI (EKVX NSCLC): 35.8 µM
TGI (OVCAR-5 ovarian): 8.49 µM
TGI (SK-MEL-28 melanoma): > 50 µM
TGI (UACC-62 melanoma): 11.5 µM
TGI (SF-539 CNS): 13.7 µM
TGI (HCT-116 colon): 6.6 µM
TGI (DMS 273 small cell lung): 2.55 µM
TGI (HL-60(TB) leukemia): 12.6 µM
TGI (NCI-H522 lung): 12.2 µM
TGI (SK-MEL-5 melanoma): 5 µM
TGI (SF-268 CNS): 10.5 µM
TGI (RXF 393 renal): 10.5 µM
TGI (MALME-3M melanoma): 25.3 µM
TGI (MOLT-4 leukemia): 5.25 µM
TGI (KM12 colon): 11.8 µM
TGI (COLO 205 colon): 0.65 µM
TGI (TK-10 renal): 21.4 µM
TGI (LXFL 529 NSCLC): 23.4 µM
TGI (HOP-92 NSCLC): 0.256 µM
TGI (UACC-257 melanoma): 10.9 µM
TGI (LOX IMVI melanoma): 0.421 µM
TGI (XF 498 CNS): 10.1 µM
TGI (UO-31 renal): 8.66 µM
TGI (HCC-2998 colon): 14.7 µM
TGI (SK-OV-3 ovarian): 45.3 µM
TGI (OVCAR-3 ovarian): 14.1 µM
TGI (M19-MEL melanoma): 9.43 µM
TGI (SF-295 CNS): 24.1 µM
TGI (DLD-1 colon): 9.29 µM
TGI (CCRF-CEM leukemia): > 50 µM
TGI (NCI-H226 lung): 10.7 µM
TGI (ACHN renal): 6.58 µM
TGI (HOP-18 NSCLC): 14.4 µM
TGI (A498 renal): 23.9 µM
TGI (SNB-19 CNS): 17.5 µM
TGI (M14 melanoma): 9.93 µM
TGI (OVCAR-8 ovarian): 9.22 µM
TGI (SK-MEL-2 melanoma): 2.67 µM
TGI (K-562 leukemia): > 50 µM

CCOC(=O)/C=C/c1c[nH]c(C(=O)OCC)c1
TGI (SN12C renal): > 100 µM
TGI (OVCAR-4 ovarian): > 100 µM
TGI (SW-620 colon): > 100 µM
TGI (HOP-62 NSCLC): > 100 µM
TGI (U251 CNS): > 100 µM
TGI (A549 NSCLC): > 100 µM
TGI (DMS 114 small cell lung): > 100 µM
TGI (SNB-75 CNS): > 100 µM
TGI (IGROV1 ovarian): > 100 µM
TGI (KM20L2 colon): > 100 µM
TGI (CAKI-1 renal): > 100 µM
TGI (SNB-78 CNS): > 100 µM
TGI (NCI-H23 lung): > 100 µM
TGI (MCF7 breast): > 100 µM
TGI (HT29 colon): > 100 µM
TGI (EKVX NSCLC): > 100 µM
TGI (OVCAR-5 ovarian): > 100 µM
TGI (SK-MEL-28 melanoma): > 100 µM
TGI (UACC-62 melanoma): > 100 µM
TGI (SF-539 CNS): > 100 µM
TGI (HCT-116 colon): > 100 µM
TGI (DMS 273 small cell lung): > 100 µM
TGI (HL-60(TB) leukemia): > 100 µM
TGI (NCI-H522 lung): > 100 µM
TGI (SK-MEL-5 melanoma): > 100 µM
TGI (SF-268 CNS): > 100 µM
TGI (P388 leukemia): > 100 µM
TGI (RXF 393 renal): > 100 µM
TGI (NCI-H460 lung): > 100 µM
TGI (MALME-3M melanoma): > 100 µM
TGI (MOLT-4 leukemia): > 100 µM
TGI (KM12 colon): > 100 µM
TGI (COLO 205 colon): > 100 µM
TGI (HOP-92 NSCLC): > 100 µM
TGI (SN12K1 renal): > 100 µM
TGI (UACC-257 melanoma): > 100 µM
TGI (LOX IMVI melanoma): > 100 µM
TGI (XF 498 CNS): > 100 µM
TGI (UO-31 renal): > 100 µM
TGI (HCT-15 colon): > 100 µM
TGI (HCC-2998 colon): > 100 µM
TGI (SK-OV-3 ovarian): > 100 µM
TGI (OVCAR-3 ovarian): > 100 µM
TGI (M19-MEL melanoma): > 100 µM
TGI (RPMI-8226 leukemia): > 100 µM
TGI (NCI/ADR-RES ovarian): > 100 µM
TGI (SF-295 CNS): > 100 µM
TGI (DLD-1 colon): > 100 µM
TGI (CCRF-CEM leukemia): > 100 µM
TGI (P388/ADR leukemia): > 100 µM
TGI (NCI-H226 lung): > 100 µM
TGI (HOP-18 NSCLC): > 100 µM
TGI (A498 renal): > 100 µM
TGI (SNB-19 CNS): > 100 µM
TGI (OVCAR-8 ovarian): > 100 µM
TGI (SK-MEL-2 melanoma): > 100 µM
TGI (K-562 leukemia): > 100 µM

Cc1cc2c(C(C)C)c(O)c(O)c(C=O)c2c(O)c1-c1c(C)cc2c(C(C)C)c(O)c(O)c(C=O)c2c1O
TGI (SW-620 colon): 30.8 µM [middle of 4 runs]
TGI (HS 578T breast): 13.5 µM and 36 µM and 27.8 µM
TGI (MDA-N): > 100 µM
TGI (DMS 114 small cell lung): 9.21 µM
TGI (KM20L2 colon): 11.4 µM
TGI (SNB-78 CNS): 25.8 µM
TGI (RXF-631 renal): 25.3 µM
GI50 (SK-MEL-28 melanoma): 2.39 µM and 18 µM and 9.01 µM
TGI (DMS 273 small cell lung): 18.3 µM
TGI (T-47D breast): 7.76 µM and 50.5 µM and 26.4 µM
TGI (DU-145 prostate): 4.04 µM and 36.8 µM and 29.4 µM
TGI (LXFL 529 NSCLC): 8.26 µM
TGI (PC-3 prostate): 7.11 µM and 33.8 µM and 24.5 µM
TGI (XF 498 CNS): 5.55 µM
TGI (SK-OV-3 ovarian): 8.26 µM and 50.9 µM and 31 µM
GI50 (MDA-MB-231 breast): 14.8 µM and 6.06 µM
TGI (MDA-MB-231 breast): 34.5 µM and 16.6 µM
TGI (M19-MEL melanoma): 11.4 µM
TGI (DLD-1 colon): 15.5 µM
TGI (HOP-18 NSCLC): 11.3 µM
TGI (BT-549 breast): 7.42 µM and 41.7 µM and 29.8 µM
